Converted amounts (≈) assume the structure as drawn.
Experiments:
Leishmania amazonensis = experiment: Antileishmanial activity against Leishmania amazonensis MHOM/BR/76/LTB-012 amastigotes infected BALB/c mouse macrophages after 48 hrs by MTT assay; assay type: functional, organism-based; conditions: MHOM/BR/76/LTB-012, 48 h
Trypanosoma cruzi = experiment: Antitrypanosomal activity against Trypanosoma cruzi tulahuen C4 trypomastigotes infected in african green monkey Vero cells assessed as CPRG cleavage after 120 hrs by microplate reader; assay type: functional, organism-based
[1] = tested on: Mycobacterium tuberculosis; experiment: Antitubercular activity against Mycobacterium tuberculosis H37Rv ATCC 27294 after 7 days by microplate alamar blue assay; assay type: functional; conditions: H37Rv ATCC 27294, 168 h
[2] = Cytotoxicity against BALB/c mouse macrophages after 48 hrs by trypan blue dye exclusion method; assay type: cell-based; conditions: Macrophage
[3] = Selectivity index, ratio of IC50 for BALB/c mouse macrophages to IC50 for Leishmania amazonensis MHOM/BR/76/LTB-012
[4] = Cytotoxicity against BALB mouse 3T3 cells; assay type: cell-based; conditions: BALB 3T3 cells
NCI-H460 = experiment: Cytotoxicity against human NCI-H460 cells; assay type: functional
DU-145 = experiment: Cytotoxicity against human DU145 cells; assay type: functional
MCF7 = experiment: Cytotoxicity against human MCF7 cells; assay type: functional
M14 = experiment: Cytotoxicity against human M14 cells; assay type: functional
HT-29 = experiment: Cytotoxicity against human HT-29 cells; assay type: functional
K562 = experiment: Cytotoxicity against human K562 cells; assay type: functional
Vero = experiment: Cytotoxicity against african green monkey Vero cells after 72 hrs by MTS assay; conditions: Chlorocebus sabaeus, Vero, 72 h
[5] = Selectivity index, ratio of IC50 for african green monkey Vero cells to IC50 for Trypanosoma cruzi tulahuen C4
[6] = Selectivity index, ratio of IC50 for african green monkey Vero cells to MIC for Mycobacterium tuberculosis H37Rv ATCC 27294 by microplate alamar blue assay; assay type: functional

Compound	IC50 (Leishmania amazonensis) [µM]	IC50 (Trypanosoma cruzi) [µM]	MIC [1] [µM]	IC50 [2] [µM]	Ratio IC50 [3]	GI50 [4] [µM]	GI50 (NCI-H460) [µM]	GI50 (DU-145) [µM]	GI50 (MCF7) [µM]	GI50 (M14) [µM]	GI50 (HT-29) [µM]	GI50 (K562) [µM]	IC50 (Vero) [µM]	selectivity ratio ([5]; Vero cells)	Ratio IC50 [6]	selectivity ratio ([5]; vero)
COc1cc(/C=N/Nc2ncnc3sc4c(c23)CCCC4)ccc1O	7.2	–	–	–	–	–	–	–	–	–	–	–	–	–	–	–
COc1cc(/C=N/Nc2ncnc3sc4c(c23)CCCC4)cc(OC)c1OC	7.2	> 25	> 250	8.9	1.2	22.5	28.3	22.5	10.5	15.6	11.4	4.7	–	–	–	–
C[C@@H]1[C@H](O)[C@@H](C)/C=C/C=C/C=C/C=C/C=C/C=C/C=C/[C@H](O[C@@H]2O[C@H](C)[C@@H](O)[C@H](N)[C@@H]2O)C[C@@H]2O[C@](O)(C[C@@H](O)C[C@@H](O)[C@H](O)CC[C@@H](O)C[C@@H](O)CC(=O)O[C@H]1C)C[C@H](O)[C@H]2C(=O)O [AMPHOTERICIN B]	–	–	–	5.4	54	–	–	–	–	–	–	–	–	–	–	–
C=CCOc1cc(/C=N/Nc2ncnc3sc4c(c23)CCCC4)cc(OCC=C)c1Br	5.3	15.4	> 200	3.5	0.7	< 2	3.1	< 2	3.8	12.8	3.9	3.9	6	0.4	–	–
Oc1ccc(/C=N/Nc2ncnc3sc4c(c23)CCCC4)cc1	41.6	11.3	72.1 (≈ 23.4 µg/mL)	178	4.3	6.6	14.9	20.8	17	17.2	19.5	15.8	12.3	1.1	0.6	–
CC(C)=NNc1ncnc2sc3c(c12)CCCC3	40.6	14.1	240 (≈ 62.4 µg/mL)	238	5.9	> 3.5	9.3	11.6	12.2	23.3	33	13.6	38.4	2.7	0.5	–
CC(C)(C)c1ccc(/C=N/Nc2ncnc3sc4c(c23)CCCC4)cc1	1.7	11.2	> 250	6.6	3.8	23.2	6.4	21.9	6.3	30.3	15.7	6.4	13.7	1.2	–	–
C(=N\Nc1ncnc2sc3c(c12)CCCC3)/c1ccc[nH]1	10.1	22.9	20.8 (≈ 6.19 µg/mL)	9.7	1	2.2	1.7	4.6	0.4	2.5	3.8	1.9	3.4	0.1	0.6	–
Fc1ccc(/C=N/Nc2ncnc3sc4c(c23)CCCC4)cc1	9.7	18.4	71.1 (≈ 23.2 µg/mL)	9.4	1	20.5	9.4	13.9	7.4	17.6	10.4	8.9	18.4	1	0.6	–
CC(C)(C)/C=N/Nc1ncnc2sc3c(c12)CCCC3	113	> 25	299 (≈ 86.3 µg/mL)	176	1.6	7.3	24.5	25.1	26	32.7	33	27.5	–	–	0.3	–
N#Cc1ccc(/C=N/Nc2ncnc3sc4c(c23)CCCC4)cc1	32.3	> 25	> 300	162	5	150	> 170	> 170	102	> 170	> 170	> 170	–	–	–	–
C(=N\Nc1ncnc2sc3c(c12)CCCC3)/c1ccncc1	233	> 25	> 300	154	0.7	83.2	169	83.9	83.9	> 150	153	109	–	–	–	–
COc1cc(/C=N/Nc2ncnc3sc4c(c23)CCCC4)cc(OC)c1O	40.8	> 25	> 250	121	3	27.3	> 170	27.2	> 170	> 170	> 170	> 170	–	–	–	–
O=[N+]([O-])c1ccc(/C=N/Nc2ncnc3sc4c(c23)CCCC4)cc1	38.5	> 25	> 250	199	5.2	> 170	> 170	> 170	> 170	> 170	> 170	> 170	–	–	–	–
c1ccc(C(=NNc2ncnc3sc4c(c23)CCCC4)c2ccccc2)cc1	182	> 25	> 250	156	0.9	> 170	> 170	> 170	> 170	> 170	> 170	> 170	–	–	–	–
C(=N\Nc1ncnc2sc3c(c12)CCCC3)/c1ccc2ccccc2c1	39	13.3	> 250	15.9	0.4	27.9	20.8	24.1	9.3	35.2	19.4	6.2	13.9	1.1	–	–
Fc1ccccc1/C=N/Nc1ncnc2sc3c(c12)CCCC3	3.3	10.8	> 300	10.2	3.1	> 250	> 250	> 250	> 250	> 250	> 250	81.2	18.4	1.7	–	–
O=[N+]([O-])c1ccccc1/C=N/Nc1ncnc2sc3c(c12)CCCC3	108	> 25	> 250	> 200	–	> 170	52.9	103	52	> 170	> 170	> 170	–	–	–	–
O=c1[nH]cc(F)c(=O)[nH]1 [FLUOROURACIL]	–	–	–	–	–	< 3	2.3	5.3	4.5	32.4	–	89.9	–	–	–	–
C(=N\Nc1ncnc2sc3c(c12)CCCC3)/c1ccc2c(c1)OCO2	29.4	22.8	> 250	16.3	0.6	> 250	> 250	> 250	117	> 250	> 250	> 250	17	0.7	–	–
Cc1ccc(/C=N/Nc2ncnc3sc4c(c23)CCCC4)cc1	42.6	> 25	> 250	19.4	0.5	37.5	133	> 170	12.9	> 170	> 170	7.1	–	–	–	–
CC1CS(=O)(=O)CCN1/N=C/c1ccc([N+](=O)[O-])o1 (configuration not stated) [NIFURTIMOX]	–	4.5	–	–	–	–	–	–	–	–	–	–	94	–	–	20.8
C(=N\Nc1ncnc2sc3c(c12)CCCC3)/c1cccc2ccccc12	12.7	13	> 250	16.6	1.3	16.7	19.9	24.1	6.3	18.4	6.2	4.7	2.8	0.2	–	–
CC(C)c1ccc(/C=N/Nc2ncnc3sc4c(c23)CCCC4)cc1	3.6	5.2	> 250	8.4	2.3	9.4	5.9	10.8	5.2	17.8	5.9	4.1	2.9	0.5	–	–
COc1ccc(/C=N/Nc2ncnc3sc4c(c23)CCCC4)c(OC)c1	33.2	18.5	> 250	144	4.3	19.9	29.5	20	21.1	94.4	20	7.9	32.6	1.8	–	–
